Data taken from patent publication US4740501A (priority 1985, dated 1988).

Experiments:
L-1210 leukemia cells = experiment: Bioassay of tumorigenicity of in vitro treated tumor cells in syngeneic hosts; type: in vivo, BDf1 mice; settings: for MEAN SURVIVAL TIME (MST) of recipients: L-1210, control 10
Text: Suspensions of untreated and tripeptide treated MJY-alpha mammary tumor, B-16 melanoma, and L-1210 leukemia cells were adjusted to a concentration of 1×10^7 cells/ml based on the initial tumor cell concentration before the tripeptide exposure. Tumor cells were inoculated into syngeneic hosts at a concentration of 1×10^6 cells in […]. Female BALB/c/Crgl recipients of MJY-alpha mammary tumor cells and male C57BL/6/Jx hosts receiving B16 melanoma cells were inoculated subcutaneously; BDf1 mice were given intraperitoneal injections of L-1210 cells. Subcutaneous tumors were measured along their long and short axes every 1 to 3 days; tumor size is reported as the product of the two measurements (mm^2). The examination periods for mice receiving L-1210, MJY-alpha and B-16 tumor grafts were 45, 80, and 85 days, respectively. All mice were autopsied at the time of death or sacrifice.

L1210 MTX = experiment: MTX and cisplatin cross-resistance test, 24 hour exposure; type: cell-based
Raji B-lymphoma = experiment: Tumor cell survival (trypan blue), continuous exposure; type: cell-based, Human
[1] = test system: MJY-alpha mammary tumor cells; experiment: Tumor cell survival after pulse treatment; type: cell-based, Mouse; settings: for Percent Tumor Cell Survival: viability 24 hr later
Description: (§1) MJY-alpha mammary tumor cell layers were initiated at 2×10^5 cells/2 cm^2 well (Nuncion Multidish 4, Vangard International, Neptune, NJ) using cells spontaneously released into the medium from confluent 6-8 day old cell layers. B-16 melanoma cells obtained from 4-day-old cell confluent cultures by trypsinization with STV were plated at 2.2×10^5 cells/cm^2 well. These seeding densities yielded lightly confluent layers (2.3-2.6×10^5 cell/cm^2). following treatment the layers were rinsed twice and reincubated with growth media: media were changed daily until the cultures were terminated.
(§2) Survival of tumor cell layers or suspensions was ascertained using 0.5% trypan blue in 0.1M phosphate-buffered saline, pH 7.25. Cell layers were released from the Multidish-4 wells with 0.5 ml STV, diluted 2 to 10 fold with the vital strain; tumor cells in suspension cultures were directly mixed 1:1 with the trypan blue dye. Tumor cells were enumerated using a haemocytometer; all 10 fields were counted for every sample. Percent viable cells was determined by direct comparison of the numbers of cells excluding trypan blue in treated cultures to those in untreated or diluent-treated parallel cultures. There were no significant differences in the viability of cells treated with diluent when compared to untreated cells.
(§3) To delineate the minimum concentration and duration of the tripeptide compound exposure to induce cytolysis, MJY-alpha and B-16 melanoma cell layers and L-1210 leukemia cell suspensions were exposed to 0.5 to 50 ug of the tripeptide compound per ml of solvent for 0.25 to 4 hours. The tripeptide compound was then removed and the cells washed and reincubated in media growth. Tumor cell viability was determined 24 hrs after pulse tripeptide compound exposure. Cell survival of all three tumor cell lines was reduced by an exposure period of as short as 15 min (Table 4). The degree of cytolysis increased with extension of the treatment periods from 15 min to 4 hrs, although the decreases in cell survival were not proportional to the duration of the exposure. […] Comparison of the data in Tables 2 and 4 reveal that cells exposed to the tripeptide compound for one hour were irreversibly damaged when assayed a day later despite their apparent viability immediately after treatment.
(§4) The reversibility of the cancericidal activity of the tripeptide compounds on L-1210 leukemia, MJY-alpha mammary tumor and B-16 melanoma cells was also monitored in the nonhostile tissue culture environment. Cell suspensions of these tumor models were treated with tripeptide for 15 to 240 min, washed and either inoculated into mice or maintained as suspension (L-1210) or monolayer cultures (MJY-alpha and B-16). Reductions in tumor cells survival were negligible (0-6%) in all three tumor systems at initiation of in vitro cultures following treatment with 50 ug tripeptide/ml for as long as 4 hrs. However, significant decreases in cellular viabilities of L-1210 leukemia (FIG. 9), MJY-alpha mammary tumor (FIG. 10) and B-16 melanoma (FIG. 11) tumor cells were observed 24 hr following tripeptide exposure and for the next 6 days.

B-16 melanoma cells = experiment: Tumor cell survival after pulse treatment; type: cell-based, Mouse; settings: for Percent Tumor Cell Survival: viability 24 hr later
Description: as §1, §2, §3, §4

L1210S = experiment: cells; type: cell-based
P388/L-PAM leukemia = experiment: cells; type: cell-based, mice
[2] = 50 ug/ml for as long as 4 hrs (all three tumor systems)

## CCOC(=O)[C@H](CCSC)NC(=O)[C@H](Cc1cccc(N(CCCl)CCCl)c1)NC(=O)[C@@H](N)Cc1ccc(F)cc1.Cl [PTT.119, 3-(p-fluorophenyl)-L-alanyl-3-[m-bis(2-chloroethyl)aminophenyl]-L-alanyl-L-methionine ethyl ester hydrochloride]
L-1210 leukemia cells; 1 ug/ml, 15 min
  MEAN SURVIVAL TIME (MST) of recipients: 10 days
L-1210 leukemia cells; 1 ug/ml, 30 min
  MEAN SURVIVAL TIME (MST) of recipients: 10 days
L-1210 leukemia cells; 1 ug/ml, 60 min
  MEAN SURVIVAL TIME (MST) of recipients: 11 days
L-1210 leukemia cells; 1 ug/ml, 120 min
  MEAN SURVIVAL TIME (MST) of recipients: 13 days
L-1210 leukemia cells; 5 ug/ml, 15 min
  MEAN SURVIVAL TIME (MST) of recipients: 13 days
L-1210 leukemia cells; 5 ug/ml, 30 min
  MEAN SURVIVAL TIME (MST) of recipients: 21 days
L-1210 leukemia cells; 5 ug/ml, 60 min
  MEAN SURVIVAL TIME (MST) of recipients: 32 days
L-1210 leukemia cells; 10 ug/ml, 15 min
  MEAN SURVIVAL TIME (MST) of recipients: 8 days
L-1210 leukemia cells; L-1210 cells treated with 5 ug for 30 min
  ILS (increased life span): 110%
L-1210 leukemia cells; L-1210 cells treated with 5 ug for 60 min
  ILS (increased life span): 220%
L-1210 leukemia cells; L-1210 cells treated with 5 ug for 2 hr
  tumor growth in recipient mice: No tumor growth
L-1210 leukemia cells; L-1210 cells treated with 10 ug for 30 min or longer
  tumor growth in recipient mice: No tumor growth
L1210 MTX; L1210 MTX, 24 hours exposure
  T.C.D.100: 3.75 µM
L1210 MTX; Mus musculus, L1210, 24 h, read-out: T.C.D.50
  IC50: 1940 nM
Raji B-lymphoma; 10 ug/ml, 1 hr
  % tumor cell survival: 98%
Raji B-lymphoma; 10 ug/ml, 4 hr
  % tumor cell survival: 98%
Raji B-lymphoma; 10 ug/ml, 24 hr
  % tumor cell survival: 82%
Raji B-lymphoma; 25 ug/ml, 1 hr
  % tumor cell survival: 100%
Raji B-lymphoma; 25 ug/ml, 4 hr
  % tumor cell survival: 97%
Raji B-lymphoma; 25 ug/ml, 8 hr
  % tumor cell survival: 97%
Raji B-lymphoma; 25 ug/ml, 24 hr
  % tumor cell survival: 35%
Raji B-lymphoma; 50 ug/ml, 1 hr
  % tumor cell survival: 94%
Raji B-lymphoma; 50 ug/ml, 4 hr
  % tumor cell survival: 90%
Raji B-lymphoma; 50 ug/ml, 8 hr
  % tumor cell survival: 76%
Raji B-lymphoma; 50 ug/ml, 24 hr
  % tumor cell survival: 20%
[1]; 5 ug/ml, pulse 1 hr
  Percent Tumor Cell Survival: 89%
[1]; 5 ug/ml, pulse 2 hr
  Percent Tumor Cell Survival: 77%
[1]; 5 ug/ml, pulse 4 hr
  Percent Tumor Cell Survival: 76%
[1]; 5 ug/ml, pulse .5 hr
  Percent Tumor Cell Survival: 94%
[1]; 10 ug/ml, pulse 1 hr
  Percent Tumor Cell Survival: 70%
[1]; 10 ug/ml, pulse 2 hr
  Percent Tumor Cell Survival: 64%
[1]; 10 ug/ml, pulse 4 hr
  Percent Tumor Cell Survival: 48%
[1]; 10 ug/ml, pulse .25 hr
  Percent Tumor Cell Survival: 68%
[1]; 10 ug/ml, pulse .5 hr
  Percent Tumor Cell Survival: 67%
[1]; 25 ug/ml, pulse 1 hr
  Percent Tumor Cell Survival: 51%
[1]; 25 ug/ml, pulse 2 hr
  Percent Tumor Cell Survival: 46%
[1]; 25 ug/ml, pulse 4 hr
  Percent Tumor Cell Survival: 44%
[1]; 25 ug/ml, pulse .25 hr
  Percent Tumor Cell Survival: 61%
[1]; 25 ug/ml, pulse .5 hr
  Percent Tumor Cell Survival: 37%
[1]; [2]
  reductions in tumor cell survival at initiation of in vitro cultures: 0-6%
[1]; 50 ug/ml, pulse 1 hr
  Percent Tumor Cell Survival: 41%
[1]; 50 ug/ml, pulse .25 hr
  Percent Tumor Cell Survival: 45%
[1]; 50 ug/ml, pulse .5 hr
  Percent Tumor Cell Survival: 32%
B-16 melanoma cells; 5 ug/ml, pulse 1 hr
  Percent Tumor Cell Survival: 88%
B-16 melanoma cells; 5 ug/ml, pulse 2 hr
  Percent Tumor Cell Survival: 66%
B-16 melanoma cells; 5 ug/ml, pulse 4 hr
  Percent Tumor Cell Survival: 79%
B-16 melanoma cells; 5 ug/ml, pulse .5 hr
  Percent Tumor Cell Survival: 93%
B-16 melanoma cells; 10 ug/ml, pulse 1 hr
  Percent Tumor Cell Survival: 68%
B-16 melanoma cells; 10 ug/ml, pulse 2 hr
  Percent Tumor Cell Survival: 73%
B-16 melanoma cells; 10 ug/ml, pulse 4 hr
  Percent Tumor Cell Survival: 63%
B-16 melanoma cells; 10 ug/ml, pulse .5 hr
  Percent Tumor Cell Survival: 75%
B-16 melanoma cells; 25 ug/ml, pulse 1 hr
  Percent Tumor Cell Survival: 60%
B-16 melanoma cells; 25 ug/ml, pulse 2 hr
  Percent Tumor Cell Survival: 56%
B-16 melanoma cells; 25 ug/ml, pulse 4 hr
  Percent Tumor Cell Survival: 52%
B-16 melanoma cells; 25 ug/ml, pulse .25 hr
  Percent Tumor Cell Survival: 82%
B-16 melanoma cells; 25 ug/ml, pulse .5 hr
  Percent Tumor Cell Survival: 67%
B-16 melanoma cells; [2]
  reductions in tumor cell survival at initiation of in vitro cultures: 0-6%
B-16 melanoma cells; 50 ug/ml, pulse 1 hr
  Percent Tumor Cell Survival: 48%
B-16 melanoma cells; 50 ug/ml, pulse .25 hr
  Percent Tumor Cell Survival: 65%
B-16 melanoma cells; 50 ug/ml, pulse .5 hr
  Percent Tumor Cell Survival: 62%
L1210S; 24 h, read-out: T.C.D.50
  IC50: 2380 nM
L1210S; L1210S, 24 hours exposure
  T.C.D.100: 7.5 µM
P388/L-PAM leukemia
  T.C.D.100: 22.5
  surviving fraction at end of examination period: 0-0.5%
P388/L-PAM leukemia; 3.75 µM
  percentage of viable cells: 0-1%
P388/L-PAM leukemia; Mus musculus, P388, 24 h, read-out: T.C.D.50
  IC50: 5000 nM
